Results as given in PubChem BioAssay AID1918941 (Molecular Pharmacology Branch, DTP, NCI, 2023).
“And” between values parts separate entries of the source, which are not always exact repeats. Equal entries are not always repeated.

System: SW 1271 complex spheroids, viability
Assay: Anticancer human tumor SW 1271 cell line growth inhibition [LSD1];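 further: spheroids exposed to agents for 7 days before luminescence read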;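 on viability, T/C: 100% = DMSO vehicle control viability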
Conditions: for viability, T/C: stronger effect = lower value
Text: Multicellular complex tumor spheroid response to LSD1 Inhibitor Iadademstat in combination with a variety of drugs and investigational agents in selected tumor cell lines
The current study was undertaken to assess response to LSD1 inhibitors in combination with standard-of-care drugs and investigational agents in solid tumor complex spheroid models as well as in the K-562 leukemia. Complex spheroids include a stromal component modeled by human endothelial cells (HUVEC) and fibroblasts modeled by human mesenchymal stem cells (MSCs). The concentration ranges selected for each drug and investigational agent were based upon clinically achievable concentrations if the clinical Cmax of the agent was known.
Compounds. The drugs and investigational agents used in this study are listed on Table 1. All of the agents used, including staurosporine (NSC755774) and gemcitabine (NSC613327), were obtained from the Developmental Therapeutics Program, NCI. FDA-approved anticancer drugs are available from the NCI at http://dtp.nci.nih.gov/branches/dscb/oncology_drugset_explanation.html. Drugs and investigational agents were >95% pure by proton nuclear magnetic resonance (NMR) and liquid chromatography/mass spectrometry (LC/MS). Stock solutions were prepared at 400x in DMSO, stored at -70 degrees C, and diluted in fresh medium prior to their use. The final concentration of DMSO in cell culture wells never exceeded 0.25% (v/v). The FDA-approved anticancer drug set is available from the Developmental Therapeutics Program at https://dtp.cancer.gov/organization/dscb/obtaining/available_plates.htm. All drugs and investigational agents were tested over a range starting from a high concentration at or near the clinical Cmax and decreasing in half-log increments. If the clinical Cmax for an agent had not been determined, the highest concentration tested was 10 microM.
Cell Lines. The patient-derived cancer cell (PDC) lines: 292921-168-R-J2-PDC, K24384-001-R-PDC, and 521955-158-R2-J5-PDC pancreatic carcinomas, 556581-035-R-J1 ovarian carcinoma, 324938-238-R-J1-PDC, 855422-203-R-J1-PDC and 883617-216-R-J1-PDC urothelial bladder carcinomas, 743489-274-T-PDC renal cell carcinoma, 138582-R-J1 Merkel cell tumor, K60290-347-R-J1 and K57222-313-R-J1-PDC glioblastomas, 653999-131-R-J2-PDC, LG0703-F948-PDC, and 349418-098-R-PDC non-small cell lung carcinomas, 885512-296-R-J2-PDC, 171881-019-R-J1-PDC breast carcinomas and 186277-243-T-J2-PDC and 233499-124-R-J2-PDC colon carcinomas were obtained from the NCI Patient-Derived Models Repository (PDMR, https://pdmr.cancer.gov). The established cell lines NCI/ADR-RES (RRID:CVCL_14520 and OVCAR-5 (RRID:CVCL_1628) ovarian carcinomas, 786-O (RRID:CVCL_1051) and A498 (RRID:CVCL_A498) renal cell carcinoma, NCI-H211 (ATCC, cat. CRL-5824; RRID:CVCL_1529), NCI-H196 (ATCC, cat. CRL-5823, RRID:CVCL_1509), SW 1271 (ATCC, cat. CRL-2177, RRID:CVCL_1716) and NCI-H1876 (ATCC, cat. CRL-5902, RRID:CVCL_1503) small cell lung carcinomas, MDA-MB-231 (RRID:CVCL_0062) and MDA-MB-468 (RRID:CVCL_0419)breast carcinomas (10-12). Pooled donor human umbilical vein endothelial cells (HUVEC, Lonza, cat. CC-2519) and human mesenchymal stem cells (hMSC, Lonza, cat. PT-2501) were purchased from Lonza (Walkersville, MD).
Cell Culture. All cells were maintained in an incubator at 37 degrees C and 5% CO2 with 95% humidity. The PDC lines were cultured according to standard operating procedures established by the NCI PDMR (https://pdmr.cancer.gov). Briefly all PDCs were thawed and cultured in Matrigel-coated flasks prepared with a working solution of 1X Ham's F-12 nutrient mix, without supplementation (Invitrogen, Waltham, MA, cat. 11765054), 100 U/mL penicillin-streptomycin (Invitrogen, cat. 15140122), and 2.5% Matrigel (Corning Inc., Corning, NY, cat. 354248) for the first three passages. […]

SMILES | IC50 (curve of compound) | viability, T/C (compound 0.00316 µM) | viability, T/C (compound 0.01 µM) | viability, T/C (compound 0.0316 µM) | viability, T/C (compound 0.1 µM) | viability, T/C (compound 0.316 µM) | viability, T/C (compound 1 µM) | viability, T/C (compound 0.00949 µM) | viability, T/C (compound 0.03 µM) | viability, T/C (compound 0.0949 µM) | viability, T/C (compound 0.3 µM) | further results
CC(C)CC(NC(=O)C(Cc1ccccc1)NC(=O)c1cnccn1)B(O)O (stereo unspecified) | < 0.316 nM | 0.34% and 0.36% | 0.16% and 0.3% | 0.16% and 0.18% | 0.24% and 0.23% |  |  |  |  |  |  | viability, T/C (compound 0.000316 µM): 1.55% and 4.22%; viability, T/C (compound 0.001 µM): 0.42% and 0.29%
CC(C)c1c(-c2ccccc2)nc2c(C#N)c[nH]n2c1=O | > 10000 nM |  |  | 85.1% and 98.1% | 83.1% and 98.6% | 83.4% and 100% | 89.3% and 88.1% |  |  |  |  | viability, T/C (compound 3.16 µM): 86.2% and 91.6%; viability, T/C (compound 10 µM): 75.1% and 94.7%
COc1cc(C2c3cc4c(cc3C(OC3OC5COC(C)OC5C(O)C3O)C3COC(=O)C23)OCO4)cc(OC)c1O (stereo unspecified) | > 3000 nM |  |  |  |  |  |  | 84.9% and 100% | 79.2% and 82.9% | 72.4% and 64.1% | 83.9% and 64.4% | viability, T/C (compound 0.949 µM): 62.5% and 66.3%; viability, T/C (compound 3 µM): 54.7% and 53.3%
Cn1ncnc1C1c2n[nH]c(=O)c3cc(F)cc(c23)NC1c1ccc(F)cc1 (stereo unspecified) | > 100 nM | 87.8% and 87% | 91.1% and 85% | 84.2% and 92.2% | 91.7% and 99.5% |  |  |  |  |  |  | viability, T/C (compound 0.000316 µM): 89.1% and 97.2%; viability, T/C (compound 0.001 µM): 94.9% and 81.7%
NC1CC1c1ccc(-c2cccc(O)c2)cc1 (stereo unspecified) |  |  |  |  | 86.2% |  |  |  |  |  |  | viability, T/C (compound 10 µM): 63.2% [middle of 25 runs]; IC50 (compound alone, run of 02/21/2022): > 10000 nM
NC1CCC(NC2CC2c2ccccc2)CC1 (stereo unspecified) |  |  |  |  |  | 77.1% and 85.3% |  |  |  |  |  | IC50 (compound alone, run of 02/15/2022): > 10000 nM
Nc1ccn(C2OC(CO)C(O)C2(F)F)c(=O)n1 (stereo unspecified) | > 300 nM |  |  |  |  |  |  | 64.3% and 67.8% | 66% and 66.1% | 67.3% and 68.9% | 64.6% and 74.8% | viability, T/C (compound 0.000949 µM): 73.7% and 82.6%; viability, T/C (compound 0.003 µM): 73.8% and 71.3%
Nc1ncn(C2CC(O)C(CO)O2)c(=O)n1 (stereo unspecified) | > 1000 nM | 96% and 88.2% | 86.6% and 105% | 83.1% and 88.3% | 86.9% and 93.3% | 83% and 80.3% | 86.7% and 89.8% |  |  |  |  | 
Nc1ncn(C2CC(O)C(CO)S2)c(=O)n1 (stereo unspecified) | > 300 nM |  |  |  |  |  |  | 99.5% and 86.3% | 108% and 83.2% | 94.7% and 91.1% | 88.5% and 71.2% | viability, T/C (compound 0.000949 µM): 105% and 83.6%; viability, T/C (compound 0.003 µM): 112% and 88.6%
O=C(C=Cc1cccc(S(=O)(=O)Nc2ccccc2)c1)NO | 228 nM and 109 nM |  |  |  |  |  |  | 89.7% and 88.1% | 74.9% and 70.5% | 57.1% and 58.1% | 19.1% and 23.3% | viability, T/C (compound 0.949 µM): 9.01% and 12.3%
O=C(C=Cn1cnc(-c2cc(C(F)(F)F)cc(C(F)(F)F)c2)n1)NNc1cnccn1 | 153 nM and 147 nM | 92% and 82.7% | 87.1% and 89.1% | 80% and 75.1% | 45.3% and 51.4% | 47.8% and 40.4% | 21.6% and 16.6% |  |  |  |  | 

More lines, main results first:

IC50 (curve of compound) | SMILES | viability, T/C (compound 0.00316 µM) | viability, T/C (compound 0.01 µM) | viability, T/C (compound 0.0316 µM) | viability, T/C (compound 0.1 µM) | viability, T/C (compound 0.316 µM) | viability, T/C (compound 1 µM) | viability, T/C (compound 0.00949 µM) | viability, T/C (compound 0.03 µM) | viability, T/C (compound 0.0949 µM) | viability, T/C (compound 0.3 µM) | further results
4.78 nM and 5.84 nM | CC(C)CC(NC(=O)CNC(=O)c1cc(Cl)ccc1Cl)B1OC(=O)CC(CC(=O)O)(C(=O)O)O1 (stereo unspecified) | 74.4% and 88% | 6.54% and 16.7% | 0.32% and 0.39% | 0.31% and 0.4% |  |  |  |  |  |  | viability, T/C (compound 0.000316 µM): 99.2% and 97.3%; viability, T/C (compound 0.001 µM): 91.3% and 86.2%
2170 nM and 3600 nM | CC1(C)CCC(CN2CCN(c3ccc(C(=O)NS(=O)(=O)c4ccc(NCC5CCOCC5)c([N+](=O)[O-])c4)c(Oc4cnc5[nH]ccc5c4)c3)CC2)=C(c2ccc(Cl)cc2)C1 |  |  | 93.1% and 103% | 97.7% and 112% | 87.7% and 98.3% | 101% and 102% |  |  |  |  | viability, T/C (compound 3.16 µM): 28.1% and 55.8%; viability, T/C (compound 10 µM): 0.45% and 4.57%
108 nM and 92.1 nM | CC1COCCN1c1cc(-c2ccnn2C)c2ccnc(-c3ccn[nH]3)c2n1 (stereo unspecified) | 72.4% and 71.8% | 72.6% and 63.3% | 50.7% and 59% | 50.3% and 47.2% | 48.2% and 43.4% | 30.1% and 28.4% |  |  |  |  | 
> 10000 nM and 3980 nM | CC1COCCN1c1cc(C2(S(C)(=N)=O)CC2)nc(-c2ccnc3[nH]ccc23)n1 (stereo unspecified) |  |  | 106% and 85.9% | 97% and 88.6% | 88.2% and 78.9% | 79% and 65.3% |  |  |  |  | viability, T/C (compound 3.16 µM): 62% and 54.3%; viability, T/C (compound 10 µM): 62.1% and 39.4%
> 3000 nM | CCN(c1cc(-c2ccc(CN3CCOCC3)cc2)cc(C(=O)NCc2c(C)cc(C)[nH]c2=O)c1C)C1CCOCC1 |  |  |  |  |  |  | 98.8% and 104% | 116% and 109% | 90.8% and 91.2% | 103% and 98.9% | viability, T/C (compound 0.949 µM): 78.3% and 82.5%; viability, T/C (compound 3 µM): 73.6% and 71.4%
> 100 nM | CC[C@@]1(O)C(=O)OCc2c1cc1n(c2=O)Cc2cc3c(CN(C)C)c(O)ccc3nc2-1 | 72.7% and 75.3% | 66.6% and 85.6% | 58.7% and 65.7% | 49.4% and 53.2% |  |  |  |  |  |  | viability, T/C (compound 0.000316 µM): 88.2% and 98.2%; viability, T/C (compound 0.001 µM): 89.6% and 109%
3.64 nM and < 0.949 nM | CCc1c2c(nc3ccc(O)cc13)-c1cc3c(c(=O)n1C2)COC(=O)[C@]3(O)CC |  |  |  |  |  |  | 23.3% and 28.8% | 7.65% and 6.53% | 6.15% and 5.62% | 3.93% and 13.3% | viability, T/C (compound 0.000949 µM): 57.8% and 46.7%; viability, T/C (compound 0.003 µM): 55.8% and 41.6%
179 nM and 164 nM | COc1cc(Nc2ncc3c(n2)-c2ccc(Cl)cc2C(c2c(F)cccc2OC)=NC3)ccc1C(=O)O | 92.2% and 73.8% | 86.8% and 78.9% | 72.8% and 73.9% | 58.6% and 59% | 42.5% and 36.9% | 14.1% and 15.6% |  |  |  |  | 
523 nM and 741 nM | COc1ccc([C@@H](O)c2cc(-c3ncnc4cc(N5CCOCC5)ccc34)c(F)cc2Cl)nn1 |  |  | 79.9% and 85.5% | 74.7% and 91.9% | 54.5% and 64% | 40.4% and 45.4% |  |  |  |  | viability, T/C (compound 3.16 µM): 31.7% and 28.2%; viability, T/C (compound 10 µM): 20.3% and 21.4%
> 3000 nM | NS(=O)(=O)OCC1CC(n2ccc3c(NC4CCc5ccccc54)ncnc32)CC1O (stereo unspecified) |  |  |  |  |  |  | 159% and 149% | 127% and 122% | 83.5% and 85.6% | 89.7% and 67.7% | viability, T/C (compound 0.949 µM): 73.1% and 74.3%; viability, T/C (compound 3 µM): 82.1% and 73.2%
156 nM and 127 nM | Nc1ccccc1NC(=O)c1ccc(CNC(=O)OCc2cccnc2)cc1 |  |  |  |  |  |  | 90.7% and 84.4% | 83.4% and 69.1% | 61.4% and 59.8% | 35.6% and 29.2% | viability, T/C (compound 0.949 µM): 10.2% and 7.11%; viability, T/C (compound 3 µM): 6.48% and 7.88%
> 10000 nM | O=C(c1cc(Cc2n[nH]c(=O)c3ccccc23)ccc1F)N1CCN(C(=O)C2CC2)CC1 |  |  | 84.9% and 80.2% | 85.2% and 85.3% | 81.4% and 76.1% | 81.5% and 85.4% |  |  |  |  | viability, T/C (compound 3.16 µM): 90.2% and 77%; viability, T/C (compound 10 µM): 87.5% and 68.8%
